These results are taken from patent US10030027B2, “Soluble guanylate cyclase stimulators” (MERCK SHARP & DOHME CORP., priority 2015, dated 2018).

Test [1] addresses sGC α1/β1 heterodimer (Homo sapiens (Human), UniProt Q02108+Q02153). Put plainly: Cell-based sGC functional assay (cyclic GMP assay for sGC activator: CASA assay). To be noted: CHO-K1/sGC cells; for Emax: CHO-K1, activity expressed as percentage of compound A (standard), read-out: % Activation; for EC50: inflection point, 4P fit, read-out: IP. The gist of the method: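 CHO-K1 cells stably expressing sGC α1/β1 were pre-incubated with or without 1 μM DETA-NO (30 min, 25 °C), then exposed to compounds for 1 hr at 37 °C with 0.5 mM IBMX. Intracellular cGMP was read by HTRF and expressed as a percentage of a reference heme-dependent activator's maximum.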

For test [2], the target named is human recombinant sGC enzyme (Homo sapiens (Human), UniProt Q02108+Q02153). The experiment in a line: Size Exclusion Chromatography (SEC) competition binding assay using [3H] Ex-77B as the radioligand. Particulars: [3H] Ex-77B radioligand, 24 hours at 37° C. A digest of the protocol: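 Recombinant human sGC binding measured by competition against tritiated Ex-77B radioligand, with non-specific binding defined by 1 μM unlabeled Ex-77B.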

The term Ki denotes a dissociation constant, usually derived from enzyme kinetics or from competition with a known ligand.

Regarding `CC(C)(Cc1coc(C2(C)C(=O)Nc3nc(-c4nn(CC5CCCC5)c5ncccc45)nc(N)c32)n1)C(=O)O` (stereo not drawn) [Example 154A, 3-(2-{4-amino-2-[1-(cyclopentyl-methyl)-1H-pyrazolo[3,4-b]pyridin-3-yl]-5-methyl-6-oxo-6,7-dihydro-5H-pyrrolo[2,3-d]pyrimidin-5-yl}-1,3-oxazol-4-yl)-2,2-dimethyl-propanoic acid], in test [1], the Emax turned out to be 104% and the EC50 came out at 577 nM. Further, the inhibitory constant (Ki) in test [2] was 0.091 nM.
As to `CC(C)(CCc1csc(C2(C)C(=O)Nc3nc(-c4nn(Cc5ccccc5F)c5ccccc45)nc(N)c32)n1)C(=O)O` (stereo not drawn) [Example 204A, 4-(2-{4-amino-2-[1-(2-fluorobenzyl)-1H-indazol-3-yl]-5-methyl-6-oxo-6,7-dihydro-5H-pyrrolo[2,3-d]pyrimidin-5-yl}-1,3-thiazol-4-yl)-2,2-dimethyl-butanoic acid], in test [1], the Emax was determined as 97.8% and the EC50 came out at 47 nM. Besides, in test [2], the Ki was 0.269 nM.
In the case of `CC(C)(Cc1coc(C2(C)C(=O)Nc3nc(-c4nn(Cc5cccc(F)c5)c5ncccc45)nc(N)c32)n1)C(=O)O` (stereo not drawn) [Example 150A, 3-(2-{4-amino-2-[1-(3-fluoro-benzyl)-1H-pyrazolo [3,4-b]pyridin-3-yl]-5-methyl-6-oxo-6,7-dihydro-5H-pyrrolo[2,3-d]pyrimidin-5-yl}-1,3-oxazol-4-yl)-2,2-dimethyl-propanoic acid], in test [1], the Emax came to 102% and the EC50 was 294 nM. Besides, the Ki in test [2] is 0.096 nM.
For `CC(C)(Cc1coc(C2(C)C(=O)Nc3nc(-c4nn(CC5CCCCO5)c5ncccc45)nc(N)c32)n1)C(=O)O` (single isomer, unassigned) [Example 124AA, 3-{2-[4-amino-5-methyl-6-oxo-2-{1-[tetrahydro-2H-pyran-2-ylmethyl]-1H-pyrazolo[3,4-b]pyridin-3-yl}-6,7-dihydro-5H-pyrrolo[2,3-d]pyrimidin-5-yl]-1,3-oxazol-4-yl}-2,2-dimethylpropanoic acid], in that order: 76.5%, 1600 nM and 0.506 nM.
For the compound `CC(C)(Cc1csc([C@]2(C)C(=O)Nc3nc(-c4nn(Cc5cccc(F)c5F)c5cc(Cl)ccc45)nc(N)c32)n1)C(=O)O` [Example 181A, (S)-3-(2-{4-amino-2-[6-chloro-1-(2,3-difluorobenzyl)-1H-indazol-3-yl]-5-methyl-6-oxo-6,7-dihydro-5H-pyrrolo[2,3-d]pyrimidin-5-yl}-1,3-thiazol-4-yl)-2,2-dimethyl-propanoic acid], in test [1], the Emax amounted to 112% and the EC50 was found to be 278 nM. The inhibition constant Ki in test [2] stood at 0.094 nM.
On to `CC(C)(Cc1coc(C2(C)C(=O)Nc3nc(-c4nn(Cc5ccccc5F)c5ncccc45)nc(N)c32)n1)C(=O)O` (stereo not drawn) [Example 1A, 3-(2-{4-Amino-2-[1-(2-fluorobenzyl)-1H-pyrazolo[3,4-b]pyridin-3-yl]-5-methyl-6-oxo-6,7-dihydro-5H-pyrrolo[2,3-d]pyrimidin-5-yl}oxazol-4-yl)-2,2-dimethylpropanoic acid], for which, in test [1], the Emax worked out at 120% and the EC50 was found to be 409 nM. The Ki in test [2] stood at 0.047 nM.
On to `C[C@@]1(c2ccc(CCc3nn[nH]n3)cc2)C(=O)Nc2nc(-c3nn(Cc4ccccc4F)c4ccccc34)nc(N)c21` [Example 242B, (S)-4-amino-2-[1-(2-fluoro-benzyl)-1H-indazol-3-yl]-5-methyl-5-{4-[2-(2H-tetrazol-5-yl)ethyl]phenyl}-5,7-dihydro-6H-pyrrolo[2,3-d] pyrimidin-6-one], for which, in test [1], the Emax was 107% and the EC50 was 3100 nM. The Ki in test [2] is 1.11 nM.
On to `C[C@@]1(c2ccc(CCC(=O)O)cc2)C(=O)Nc2nc(-c3nn(Cc4cccc(F)c4)c4cc(Cl)ccc34)nc(N)c21` [Example 69B, (S)-3-(4-{4-amino-2-[6-chloro-1-(3-fluorobenzyl)-1H-indazol-3-yl]-5-methyl-6-oxo-6,7-dihydro-5H-pyrrolo[2,3-d]pyrimidin-5-yl}phenyl)propanoic acid], for which, in test [1], the Emax was 139% and the EC50 turned out to be 289 nM. Further, the inhibition constant (Ki) in test [2] worked out at 0.101 nM.
